Assay results taken from US20250109141A1, “BRD4 PROTEIN DEGRADER COMPOUND, AND PREPARATION METHOD AND USE THEREOF” (Miracure Biotechnology Limited, priority 2023, published 2025).

What was measured:
22RV1 = assay: Cell proliferation assay (CellTiterGlo, 72 h), 22RV1; type: cell-based; conditions: Homo sapiens, 22Rv1, 72 h; read-out: 22Rv1 ATP average IC50
Procedure: All incubations were performed at 37° C. in a humidified carbon dioxide incubator.
(§1) The cells were seeded in a 96-well plate (white wall/transparent bottom) at 5000 cells/well and cultured overnight.
(§2) On day 2, A stock solution of the compound at a concentration of 10 mM was subjected to an 8-fold serial dilution to obtain 8 concentration points. 2 μL of the compound solution at each concentration point was added to 98 μL of fresh medium, and the mixture was mixed homogeneously. Then, 5 μL of the compound solution diluted in the medium at each concentration point was added to 100 μL of overnight medium containing the cells, and 2 replicates were set for each concentration. The mixture was cultured for 72 h.
(§3) After 72 h of compound treatment, the plate was equilibrated to room temperature, 100 μL of CellTiterGlo (Promega) was added. The mixture was mixed homogeneously for 2 min, left to stand at room temperature for 10 min, and then read for luminescence values on a SpectraMax M5 microplate reader to evaluate cell viability. The positive control was 1% Tween-20 and the negative control was 0.1% DMSO. IC50 was generated by 4-parameter non-linear regression fitting in GraphPad Prism.

BRD4 [1] = molecular target: T1, BRD4 (Homo sapiens, UniProt O60885); assay: BRD4 degradation assay (Western-blot / Simple Western) in 22RV1; conditions: 22RV1 cells, target content as percentage of control (DMSO = 100%)
LNCaP = assay: Cell proliferation assay (CellTiterGlo, 72 h), LNCaP; type: cell-based; conditions: Homo sapiens, LNCap cells, 72 h compound treatment, read-out: LNCap ATP average IC50
Procedure: The cell line used was 22RV1 or LNCaP, and the medium was RPMI-1640 containing 10% FBS and antibiotics. All incubations were performed at 37° C. in a humidified carbon dioxide incubator.
On day 1, cells were digested with 0.25% trypsin (containing EDTA) and collected by centrifugation.
as §1, §2, §3

BRD4 [2] = molecular target: T1, BRD4; assay: BRD4 degradation assay (Western-blot / Simple Western) in LNCap; type: cell-based; conditions: LNCap cells, target content as percentage of control (DMSO = 100%)
Procedure: The mixture was centrifuged for 5 min. […] The PVDF membrane was cut and labeled. […] Images were acquired and analyzed.

In the case of `COc1ccc2c(c1)C(c1ccc(C#CCNO)cc1)=N[C@@H](Cc1nccs1)c1nnc(C)n1-2.Cl` [Compound 9174], the IC50 (22RV1) is reported as 200 to 500 nM, the “BRD4 degradation of 22RV1 (200 nM 5 h)” value (BRD4 [1]) is reported as “C (50%<C<80)” and the IC50 (LNCaP) is reported as 50 to 200 nM. The “BRD4 degradation of LNCap (200 nM 5 h)” value (BRD4 [2]) was “B (20%<B<50%)”.

In the case of `COc1ccc2c(c1)C(c1ccc(/C=C/CNO)cc1)=N[C@@H](CC(=O)OC1(C)CC1)c1nnc(C)n1-2` [Compound 9185], the IC50 (22RV1) is reported as less than 50 nM, the “BRD4 degradation of 22RV1 (200 nM 5 h)” value (BRD4 [1]) is reported as “B (20%<B<50%)” and the IC50 (LNCaP) is reported as less than 50 nM. The “BRD4 degradation of LNCap (200 nM 5 h)” value (BRD4 [2]) was “A (A<20%)”.

In the case of `COc1ccc2c(c1)C(c1ccc(/C=C/CN)cc1)=N[C@@H](Cc1nccs1)c1nnc(C)n1-2` [Compound 9140], the IC50 (22RV1) is reported as greater than 500 nM, the “BRD4 degradation of 22RV1 (200 nM 5 h)” value (BRD4 [1]) is reported as “B (20%<B<50%)” and the IC50 (LNCaP) is reported as 50 to 200 nM. The “BRD4 degradation of LNCap (200 nM 5 h)” value (BRD4 [2]) was “B (20%<B<50%)”.

For `COc1ccc2c(c1)C(c1ccc(/C=C/CNO)cc1)=N[C@@H](Cc1nccs1)c1nnc(C)n1-2.Cl` [Compound 9167], the IC50 (22RV1) was less than 50 nM, the IC50 (LNCaP) was less than 50 nM and the “BRD4 degradation of LNCap (200 nM 5 h)” value (BRD4 [2]) was “A (A<20%)”.

For `COc1ccc2c(c1)C(c1ccc(/C=C/CNOC(C)=O)cc1)=N[C@@H](CC(=O)OC(C)(C)C)c1nnc(C)n1-2` [Compound 9146], the IC50 (22RV1) was less than 50 nM, the “BRD4 degradation of 22RV1 (200 nM 5 h)” value (BRD4 [1]) was “A (A<20%)” and the IC50 (LNCaP) was less than 50 nM. The “BRD4 degradation of LNCap (200 nM 5 h)” value (BRD4 [2]) was “A (A<20%)”.

With `COc1ccc2c(c1)C(c1ccc(C#CCNO)cc1)=N[C@@H](CC(=O)OC(C)(C)C)c1nnc(C)n1-2` [Compound 9130] the IC50 (22RV1) was less than 50 nM, the “BRD4 degradation of 22RV1 (200 nM 5 h)” value (BRD4 [1]) was “B (20%<B<50%)” and the IC50 (LNCaP) was less than 50 nM. For the same molecule, the “BRD4 degradation of LNCap (200 nM 5 h)” value (BRD4 [2]) was “A (A<20%)”.

For `COc1ccc2c(c1)C(c1ccc(C#CCN)cc1)=N[C@@H](Cc1nccs1)c1nnc(C)n1-2` [Compound 9139], the IC50 (22RV1) was 50 to 200 nM, the “BRD4 degradation of 22RV1 (200 nM 5 h)” value (BRD4 [1]) was “B (20%<B<50%)” and the IC50 (LNCaP) was less than 50 nM. For the same molecule, the “BRD4 degradation of LNCap (200 nM 5 h)” value (BRD4 [2]) was “A (A<20%)”.

With `COc1ccc2c(c1)C(c1ccc(/C=C/CN)cc1)=N[C@@H](CC(=O)OC(C)(C)C)c1nnc(C)n1-2` [Compound 9131] the IC50 (22RV1) was 50 to 200 nM, the “BRD4 degradation of 22RV1 (200 nM 5 h)” value (BRD4 [1]) was “B (20%<B<50%)” and the IC50 (LNCaP) was less than 50 nM. The “BRD4 degradation of LNCap (200 nM 5 h)” value (BRD4 [2]) was “A (A<20%)”.
